Assay results as given in patent US20090227620A1, “ANTI-INFLAMMATORY COMPOUNDS” (priority 2005, published 2009).

Tests used:
[1] = test system: irritant contact dermatitis elicited with tetradecanoylphorbol-13-acetate (TPA) on ears of mice; assay: Anti-Inflammatory Test System (TPA-elicited irritant contact dermatitis, mouse ear); type: in vivo, strain NMRI; details: for anti-inflammatory activity (in words): mouse, in vivo; for inhibition in % (auricular weight, inflammatory swelling): topical 10 μl, 30 min before TPA, read 6 hours after
Experimental: The test sites on the inner surface of the right external ears of mice, e.g. strain NMRI, (8 per group) are treated with 10 μl of the dissolved test compound or with the vehicle (a 4:4:2 mixture of ethanol/acetone/dimethylacetamide) alone. The test compounds are applied at concentrations shown in the TEST RESULT TABLE. Thirty minutes after the treatment irritant contact dermatitis is elicited at the treated auricular sites with 10 μl 0.005% tetradecanoylphorbol-13-acetate (TPA). Skin inflammation is assessed 6 hours after the elicitation by determination of the auricular weights, as a measure of inflammatory swelling. The animals are killed and both ears are cut off and weighed. Inhibitory activity of test compounds is calculated from differences in right and left ears (internal controls) in mice treated with the test compounds compared with animals treated with the vehicle only. Results obtained are as set out in TEST RESULT TABLE below: In the TEST RESULT TABLE the concentrations of the compounds (in bold) used are indicated in micromol/litre. The values given in the TEST RESULT TABLE (in regular letters) are the inhibition in % determined according to the ANTI-INFLAMMATORY TEST SYSTEM used.

[2] = molecular target: T1, purified human steroid sulfatase (Homo sapiens, UniProt P08842); assay: Assay of Human Steroid Sulfatase (4-methylumbelliferyl sulfate cleavage, fluorescence); details: reference compound, determined in parallel to test compounds
T1 sequence (P08842 22-583): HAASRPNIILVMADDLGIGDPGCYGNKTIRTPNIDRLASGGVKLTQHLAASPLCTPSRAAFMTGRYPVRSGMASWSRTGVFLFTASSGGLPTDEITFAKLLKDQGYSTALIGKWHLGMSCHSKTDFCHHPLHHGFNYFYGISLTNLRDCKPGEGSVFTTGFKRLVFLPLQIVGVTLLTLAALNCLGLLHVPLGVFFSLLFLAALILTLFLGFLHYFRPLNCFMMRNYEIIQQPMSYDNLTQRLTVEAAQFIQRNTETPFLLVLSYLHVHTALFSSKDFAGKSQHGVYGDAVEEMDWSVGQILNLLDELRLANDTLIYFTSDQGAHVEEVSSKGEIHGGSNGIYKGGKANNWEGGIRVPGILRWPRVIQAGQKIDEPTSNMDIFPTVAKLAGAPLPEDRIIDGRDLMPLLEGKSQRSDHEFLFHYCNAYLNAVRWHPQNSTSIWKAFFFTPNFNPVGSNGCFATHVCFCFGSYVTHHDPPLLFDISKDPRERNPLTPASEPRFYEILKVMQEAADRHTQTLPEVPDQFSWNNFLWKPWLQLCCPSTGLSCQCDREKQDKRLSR
Experimental: Human placenta is obtained freshly after delivery and stripped of membranes and connective tissues. For storage, the material is frozen at −70° C. After thawing, all further steps are carried out at 4° C., while pH values are adjusted at 20° C. 400 g of the tissue is homogenized in 1.2 l of buffer A (50 mM Tris-HCl, pH 7.4, 0.25 M sucrose). The homogenate obtained is centrifuged at 10,000×g for 45 minutes. The supernatant is set aside and the pellet obtained is re-homogenized in 500 ml of buffer A. After centrifugation, the two supernatants obtained are combined and subjected to ultracentrifugation (100,000×g, 1 hour). The pellet obtained is resuspended in buffer A and centrifugation is repeated. The pellet obtained is suspended in 50 ml of 50 mM Tris-HCl, pH 7.4 and stored at −20° C. until further work-up. After thawing, microsomes are collected by ultracentrifugation (as described above) and are suspended in 50 ml of buffer B (10 mM Tris-HCl, pH 7.0, 1 mM EDTA, 2 mM 2-mercaptoethanol, 1% Triton X-100, 0.1% aprotinin). After 1 hour on ice with gentle agitation, the suspension is centrifuged (100,000×g, 1 hour). The supernatant containing the enzyme activity is collected and the pH is adjusted to 8.0 with 1 M Tris. […]
Plates are incubated at 37° C. for 1 hour. […] Fluorescence intensity is determined in a Titertek Fluoroskan II instrument with λex=355 nm and λem=460 nm. […]

[3] = first value, column head printed 0 micromol/litre (alignment unclear)
[4] = second value, column head printed 0.1 micromol/litre (alignment unclear)
[5] = third value, column head printed 0.3 micromol/litre (alignment unclear)

melting point	SMILES	anti-inflammatory activity (in words) [1]	inhibition in % (auricular weight, inflammatory swelling) [1, 3]	inhibition in % (auricular weight, inflammatory swelling) [1, 4]	inhibition in % (auricular weight, inflammatory swelling) [1, 5]	IC50 [2]
	CC(C)(C)OC(=O)N1CC2CCCCC(C1)C2C(=O)NS(=O)(=O)c1cc(C(F)(F)F)cc(C(F)(F)F)c1 (stereo not shown) [Example 217, 10-(3,5-bis-trifluoromethyl-benzenesulfonylaminocarbonyl)-8-aza-bicyclo[4.3.1]decane-8-carboxylic acid tert-butyl ester]	anti-inflammatory activity	20%	36%	45%	
	CC(C)(C)OC(=O)N1CC2CCCCC(C1)C2C(=O)NS(=O)(=O)c1cc(C(F)(F)F)cc(C(F)(F)F)c1 (stereo not shown) [Example 218]	anti-inflammatory activity	20%	36%	45%	
268 to 273 °C	NC(=O)c1ccc(C(F)(F)F)cc1N1CCC(CS(=O)(=O)NC(=O)c2cc(C(F)(F)F)cc(C(F)(F)F)c2)CC1 [Example 379]					
	C[C@]12CC[C@@H]3c4ccc(OS(N)(=O)=O)cc4CC[C@H]3[C@@H]1CCC2=O [estrone sulfamate, estrone 3-O-sulfamate]					~60 nM
